US11401555B2, “Genetic polymorphisms associated with stroke, methods of detection and uses thereof” (CELERA CORPORATION, priority 2008, dated 2022)

Test: Stroke statin response (SSR) in the CARE pravastatin trial: pravastatin-treated versus placebo-treated, by SNP genotype
Assay type: in vivo, human
Conditions: for EVENTS: stroke events in pravastatin arm

`CC[C@H](C)C(=O)O[C@H]1C[C@H](O)C=C2C=C[C@H](C)[C@H](CC[C@@H](O)C[C@@H](O)CC(=O)O)[C@H]21` [pravastatin] showed an EVENTS (CARE, rs2038366, REC, genotype GT + TT, TOTAL 789) of 38, an EVENTS (CARE, rs3213646 EXOD1, DOM, genotype CT + CC, TOTAL 1108) of 51 and an EVENTS (CARE, rs3213646 EXOD1, GEN, genotype CC, TOTAL 417) of 27. It also gave an EVENTS (CARE, rs3213646 EXOD1, GEN, genotype CT, TOTAL 691) of 24, an EVENTS (CARE, rs3213646 EXOD1, GEN, genotype TT, TOTAL 245) of 13 and an EVENTS (CARE, rs3213646 EXOD1, REC, genotype CT + TT, TOTAL 936) of 37. For the same molecule, the EVENTS (CARE, rs3900940 MYH15, DOM, genotype CT + CC, TOTAL 721) was 36, the EVENTS (CARE, rs3900940 MYH15, GEN, genotype CC, TOTAL 160) was 13 and the EVENTS (CARE, rs3900940 MYH15, GEN, genotype CT, TOTAL 561) was 23. The EVENTS (CARE, rs3900940 MYH15, GEN, genotype TT, TOTAL 620) was 30, the EVENTS (CARE, rs3900940 MYH15, REC, genotype CT + TT, TOTAL 1181) was 53 and the HR (pravastatin vs placebo, ENDPT4F1, hCV1463226 rs10890 FXN, GEN, genotype CC) was 0.48. It also gave an HR (pravastatin vs placebo, ENDPT4F1, hCV1463226 rs10890 FXN, GEN, genotype TT) of 0.41, an HR (pravastatin vs placebo, ENDPT4F1, hCV1846459 rs4803759, GEN, genotype CC) of 0.66 and an HR (pravastatin vs placebo, ENDPT4F1, hCV1846459 rs4803759, GEN, genotype TC) of 0.62. The HR (pravastatin vs placebo, ENDPT4F1, hCV1846459 rs4803759, REC, genotype TC + CC) was 0.64, the HR (pravastatin vs placebo, ENDPT4F1, hCV2442143 rs12544854 ASAH1, DOM, genotype TC + TT, first listing (TOTAL 1070)) was 0.57 and the HR (pravastatin vs placebo, ENDPT4F1, hCV2442143 rs12544854 ASAH1, DOM, genotype TC + TT, second listing (TOTAL 1059)) was 0.56. The HR (pravastatin vs placebo, ENDPT4F1, hCV2442143 rs12544854 ASAH1, GEN, genotype TC, first listing (TOTAL 713)) was 0.55, the HR (pravastatin vs placebo, ENDPT4F1, hCV2442143 rs12544854 ASAH1, GEN, genotype TC, second listing (TOTAL 704)) was 0.57 and the HR (pravastatin vs placebo, ENDPT4F1, hCV2741051 rs2230806 ABCA1, DOM, genotype TC + TT, first listing (TOTAL 709)) was 0.47. It also gave an HR (pravastatin vs placebo, ENDPT4F1, hCV2741051 rs2230806 ABCA1, DOM, genotype TC + TT, second listing (TOTAL 711)) of 0.47, an HR (pravastatin vs placebo, ENDPT4F1, hCV2741051 rs2230806 ABCA1, GEN, genotype TC, first listing (TOTAL 597)) of 0.47 and an HR (pravastatin vs placebo, ENDPT4F1, hCV2741051 rs2230806 ABCA1, GEN, genotype TC, second listing (TOTAL 603)) of 0.5. The HR (pravastatin vs placebo, ENDPT4F1, hCV2862873 rs780094 GCKR, DOM, genotype TC + TT) was 0.6, the HR (pravastatin vs placebo, ENDPT4F1, hCV2959482 rs3890182 ABCA1, DOM, genotype AG + AA) was 0.34 and the HR (pravastatin vs placebo, ENDPT4F1, hCV2959482 rs3890182 ABCA1, GEN, genotype AG) was 0.34. The HR (pravastatin vs placebo, ENDPT4F1, hCV3216551 rs562338, GEN, genotype GG) was 0.59, the HR (pravastatin vs placebo, ENDPT4F1, hCV8757333 rs1800588 LIPC, DOM, genotype TC + TT) was 0.49 and the HR (pravastatin vs placebo, ENDPT4F1, hCV8942032 rs1264352 DDR1, DOM, genotype CG + CC, risk allele C) was 0.41. The HR (pravastatin vs placebo, ENDPT4F1, hCV9296529 rs4358307, GEN, genotype GA) was 0.5, the HR (pravastatin vs placebo, ENDPT4F1, hCV9324316 rs9305020, GEN, genotype TT) was 0.7 and the HR (pravastatin vs placebo, ENDPT4F1, hCV9324316 rs9305020, REC, genotype CT + TT) was 0.76. It also gave an HR (pravastatin vs placebo, ENDPT4F1, hCV9473891 rs1555173, REC, genotype CT + TT) of 0.75, an HR (pravastatin vs placebo, ENDPT4F1, hCV16164743 rs2928932, GEN, genotype AA) of 0.6 and an HR (pravastatin vs placebo, ENDPT4F1, hCV16164743 rs2928932, GEN, genotype CC) of 0.31. The HR (pravastatin vs placebo, ENDPT4F1, hCV22275299 rs28927680 BUD13, GEN, genotype GC) was 0.2, the HR (pravastatin vs placebo, ENDPT4F1, hCV26682080 rs4420638, DOM, genotype GA + GG) was 0.45 and the HR (pravastatin vs placebo, ENDPT4F1, hCV26682080 rs4420638, GEN, genotype GA) was 0.5. It also gave an HR (pravastatin vs placebo, ENDPT4F1, hCV26682080 rs4420638, GEN, genotype GG) of 0.25, an HR (pravastatin vs placebo, ENDPT4F1, hCV29480044 rs10516433 TSPAN5, GEN, genotype TC) of 0.46 and an HR (pravastatin vs placebo, ENDPT4F1, hCV29480044 rs10516433 TSPAN5, REC, genotype TC + CC) of 0.67. The HR (pravastatin vs placebo, ENDPT4F1, hCV29566897 rs10507755, REC, genotype CT + TT) was 0.76, the HR (pravastatin vs placebo, ENDPT4F1, hCV30454150 rs10516434 TSPAN5, GEN, genotype TC) was 0.46 and the HR (pravastatin vs placebo, ENDPT4F1, hCV30454150 rs10516434 TSPAN5, REC, genotype TC + CC) was 0.67. For the same molecule, the HR (pravastatin vs placebo, ENDPT4F1, hDV77718013, REC, genotype TC + CC) was 0.74, the HR (rs1048621 (hCV1619596, SDCBP2), ALL, genotype AA, MODE GEN, ENDPT4F1, pravastatin vs placebo, CARE) was 0.16 and the HR (rs1048621 (hCV1619596, SDCBP2), ALL, genotype AG + AA, MODE DOM, ENDPT4F1, pravastatin vs placebo, CARE) was 0.69. It also gave an HR (rs1048621 (hCV1619596, SDCBP2), ALL, genotype AG + GG, MODE REC, ENDPT4F1, pravastatin vs placebo, CARE) of 0.82, an HR (rs1048621 (hCV1619596, SDCBP2), ALL, genotype AG, MODE GEN, ENDPT4F1, pravastatin vs placebo, CARE) of 0.89 and an HR (rs1048621 (hCV1619596, SDCBP2), ALL, genotype GG, MODE GEN, ENDPT4F1, pravastatin vs placebo, CARE) of 0.77. The HR (rs1264352 (hCV8942032, DDR1), genotype CC, MODE GEN, ENDPT4F1, pravastatin vs placebo, CARE) was 0.86, the HR (rs1264352 (hCV8942032, DDR1), genotype CG + CC, MODE DOM, ENDPT4F1, pravastatin vs placebo, CARE) was 0.41 and the HR (rs1264352 (hCV8942032, DDR1), genotype CG + GG, MODE REC, ENDPT4F1, pravastatin vs placebo, CARE) was 0.73. For the same molecule, the HR (rs1264352 (hCV8942032, DDR1), genotype CG, MODE GEN, ENDPT4F1, pravastatin vs placebo, CARE) was 0.39, the HR (rs1264352 (hCV8942032, DDR1), genotype GG, MODE GEN, ENDPT4F1, pravastatin vs placebo, CARE) was 0.84 and the HR (rs2857595 (hCV16134786), ALL, genotype AA, MODE GEN, ENDPT4F1, pravastatin vs placebo, CARE) was 0.23. The HR (rs2857595 (hCV16134786), ALL, genotype AG + AA, MODE DOM, ENDPT4F1, pravastatin vs placebo, CARE) was 0.58, the HR (rs2857595 (hCV16134786), ALL, genotype AG + GG, MODE REC, ENDPT4F1, pravastatin vs placebo, CARE) was 0.77 and the HR (rs2857595 (hCV16134786), ALL, genotype AG, MODE GEN, ENDPT4F1, pravastatin vs placebo, CARE) was 0.67. The HR (rs2857595 (hCV16134786), ALL, genotype GG, MODE GEN, ENDPT4F1, pravastatin vs placebo, CARE) was 0.8, the HR (rs11079160 (hCV32160712), ALL, genotype AA, MODE GEN, ENDPT4F1, pravastatin vs placebo, CARE) was 0.86 and the HR (rs11079160 (hCV32160712), ALL, genotype TA + AA, MODE REC, ENDPT4F1, pravastatin vs placebo, CARE) was 0.78. The HR (rs11079160 (hCV32160712), ALL, genotype TA + TT, MODE DOM, ENDPT4F1, pravastatin vs placebo, CARE) was 0.55, the HR (rs11079160 (hCV32160712), ALL, genotype TA, MODE GEN, ENDPT4F1, pravastatin vs placebo, CARE) was 0.62 and the HR (rs11079160 (hCV32160712), ALL, genotype TT, MODE GEN, ENDPT4F1, pravastatin vs placebo, CARE) was 0.24. The HR (rs12762303 (hCV27830265, ALOX5), genotype AA, MODE GEN, ENDPT4F1, pravastatin vs placebo, CARE, first listing (TOTAL 1005)) was 0.84, the HR (rs12762303 (hCV27830265, ALOX5), genotype AA, MODE GEN, ENDPT4F1, pravastatin vs placebo, CARE, second listing (TOTAL 1002)) was 0.85 and the HR (rs12762303 (hCV27830265, ALOX5), genotype GA + AA, MODE REC, ENDPT4F1, pravastatin vs placebo, CARE, first listing (TOTAL 1381)) was 0.73. It also gave an HR (rs12762303 (hCV27830265, ALOX5), genotype GA + AA, MODE REC, ENDPT4F1, pravastatin vs placebo, CARE, second listing (TOTAL 1377)) of 0.73, an HR (rs12762303 (hCV27830265, ALOX5), genotype GA + GG, MODE DOM, ENDPT4F1, pravastatin vs placebo, CARE, first listing (TOTAL 399)) of 0.46 and an HR (rs12762303 (hCV27830265, ALOX5), genotype GA + GG, MODE DOM, ENDPT4F1, pravastatin vs placebo, CARE, second listing (TOTAL 398)) of 0.46. The HR (rs12762303 (hCV27830265, ALOX5), genotype GA, MODE GEN, ENDPT4F1, pravastatin vs placebo, CARE, first listing (TOTAL 376)) was 0.47, the HR (rs12762303 (hCV27830265, ALOX5), genotype GA, MODE GEN, ENDPT4F1, pravastatin vs placebo, CARE, second listing (TOTAL 375)) was 0.47 and the HR (rs12762303 (hCV27830265, ALOX5), genotype GG, MODE GEN, ENDPT4F1, pravastatin vs placebo, CARE, first listing (TOTAL 23)) was 0. It also gave an HR (rs12762303 (hCV27830265, ALOX5), genotype GG, MODE GEN, ENDPT4F1, pravastatin vs placebo, CARE, second listing (TOTAL 23)) of 0.
